Measured values as given in patent publication US6617343B1, “Hypoglycemic N,N-arylsulfonylglycine compounds” (Eli Lilly and Company, priority 1999, dated 2003).

Legend:
[1] = tested on: Male obese-diabetic viable yellow (AvY) mice; test: Hypoglycemic efficacy: blood glucose in obese-diabetic viable yellow mice fed compound admixed in chow; format: in vivo; details: dose .03 weight percent in diet; for % BG14 (BG0 = 100): blood glucose at day 14 as percent of initial value
Protocol: Male obese-diabetic viable yellow (AvY) mice were divided into two groups of 6 each. One group was fed repelletized purina 5008 Chow and the second group was fed repelletized Purina 5008 Chow, admixed with varying doses of the candidate compound. Blood samples were taken before the experiment was initiated and 7 and 14 days after initiation. Body weight and food consumption were monitored. The blood glucose level after 7 or 14 days of treatment was measured and recorded as a percent of the initial value, compared to the untreated control (first) group. The results are presented in the table 1 below; and include the dose of the candidate compound as a weight percent of the amount incorporated into the diet. Also in the table is a representative value for a positive control (a known hypoglycemic agent reported by a Takeda group [J. Med. Chem., 35, 2617]) administered in the same way as a canditate compound of the present invention.
BG means blood glucose level; BG0 means blood glucose level at day zero and BG14 means blood glucose level at day 14 accordingly.

SMILES	% BG14 (BG0 = 100) [1]	melting point	% BG14 (BG0 = 100), (day 7) ([1]; blood glucose at day 7 as percent of initial value)
CC(C)S(=O)(=O)N(CC(=O)O)c1ccc(OCCc2coc(-c3ccccc3)n2)cc1 [Example 1, N-[4-(2-(Phenyloxazol-4yl)ethoxyl]phenyl)-N-isopropyl Sulfonylglycine]	53.1%	136 to 139 °C	
CS(=O)(=O)N(CC(=O)O)c1ccc(OCCc2coc(-c3ccccc3)n2)cc1 [Example 2, N-4[-(2-(Phenyloxazol-4yl)ethoxy)phenyl]-N-methylsufonyl-glycine]	76.4%	200 to 201 °C	
CS(=O)(=O)N(CC(=O)[O-])c1ccc(OCCc2coc(-c3ccccc3)n2)cc1.[Na+] [Example 3, Sodium N-(4-(2-Phenyl-4-oxazolylethoxy)phenyl)-N-methylsulfonylglycinate]	57.9%		
CN(C)S(=O)(=O)N(CC(=O)O)c1ccc(OCCc2coc(-c3ccccc3)n2)cc1 [Example 4, N-[4-(2-(Phenyloxazol-4yl)ethoxy)phenyl]-N-N′N′-dimethyl aminosulfonylglycine]	70.1%	154 to 156 °C	
O=C(O)CN(c1ccc(OCCc2coc(-c3ccccc3)n2)cc1)S(=O)(=O)Cc1ccccc1 [Example 5, N-[4-(2-(phenyloxazol-4yl)ethoxy)phenyl]-N-phenylmethyl sulfonylglycine]	77.0%	147 to 149 °C	
CS(=O)(=O)N(CC(=O)O)c1ccc2oc(Cc3ccc4ccccc4c3)cc2c1 [Example 6, N-[5-(-2-(2-naphthylmethyl)benzofuranyl)]-N-methylsulfonylglycine]		160 to 165 °C (dec.)	93.1 (day 7) %
